The source of these data is patent publication US10420737B2, “Hepatotoxicity-free pharmaceutical composition containing acetaminophen drugs” (NATIONAL DEFENSE EDUCATION AND RESEARCH FOUNDATION, priority 2013, dated 2019).

For data set [1], the system named is Male SD (Sprague-Dawley) rats. Put plainly: APAP-induced hepatotoxicity in rats: plasma AST and ALT activity. It counts as in vivo, rat. As to conditions: for improvement of APAP liver damage (AST, ALT, GSP and Total HAI-score, in words): combined with APAP 1000 mg/kg, versus APAP hepatotoxicity group. Here is the method: After completion of the treatments, rats were sacrificed under ether anesthesia, and blood was collected from the tail artery of the rats and placed in a test tube containing EDTA. The plasma was centrifuged at 13,000 at 4° C. for 15 minutes and the isolated plasma was transferred to Eppendorf tubes in aliquots and stored at −80° C.
Liver damage is quantified by measuring plasma AST and ALT activity. AST and ALT are common indicators of hepatotoxicity and are measured by using the Synchron LXi 725 system (Beckman Instruments, U.S.).

Data set [2] concerns Male SD (Sprague-Dawley) rats. Put plainly: APAP-induced hepatotoxicity in rats: histological liver tissue sections (Total HAI-score). As to conditions: for liver tissue sections, hepatocyte morphology (in words): liver protection groups + APAP 1000 mg/kg, H&E stain 200×, FIG. 2.
Data set [3] has as its target Cytochrome P450 2E1 (CYP2E1) (Rattus norvegicus, UniProt P05182). Put plainly: In-vitro screening of CYP2E1 inhibitors in rat liver microsomes (chlorzoxazone 6-hydroxylation). An excerpt:
(§1) This example is preparation of microsomes from rat and human liver for in vitro screening of CYP2E1 inhibitors. A total of 55 safe and edible excipients are included in the screening for cytochrome P450 2E1 (CYP2E1) inhibitors. […] After addition of the test sample, the amount of CYP2E1 metabolite standard 6-OH—CZX (6-Hydroxy-Chlorzoxazone) is used for calculation of the CYP 2E1 inhibition ratio of the test sample by using the amount of 6-OH—CZX of the control group as the baseline.
(§2) Transfer to and pre-incubate the reaction mixture in a water bath at 37° C. for 1 minute. […] Incubate the sample for 1 minute and add internal standard (5 ug/mL 4-hydroxy-tobutamide).

The target in data set [4] is Cytochrome P450 2E1 (CYP2E1) (Homo sapiens, UniProt P05181). In words: In-vitro screening of CYP2E1 inhibitors in human liver microsomes (chlorzoxazone 6-hydroxylation).
Sequence of Cytochrome P450 2E1 (CYP2E1) (Homo sapiens, UniProt P05181) (P05181 whole entry): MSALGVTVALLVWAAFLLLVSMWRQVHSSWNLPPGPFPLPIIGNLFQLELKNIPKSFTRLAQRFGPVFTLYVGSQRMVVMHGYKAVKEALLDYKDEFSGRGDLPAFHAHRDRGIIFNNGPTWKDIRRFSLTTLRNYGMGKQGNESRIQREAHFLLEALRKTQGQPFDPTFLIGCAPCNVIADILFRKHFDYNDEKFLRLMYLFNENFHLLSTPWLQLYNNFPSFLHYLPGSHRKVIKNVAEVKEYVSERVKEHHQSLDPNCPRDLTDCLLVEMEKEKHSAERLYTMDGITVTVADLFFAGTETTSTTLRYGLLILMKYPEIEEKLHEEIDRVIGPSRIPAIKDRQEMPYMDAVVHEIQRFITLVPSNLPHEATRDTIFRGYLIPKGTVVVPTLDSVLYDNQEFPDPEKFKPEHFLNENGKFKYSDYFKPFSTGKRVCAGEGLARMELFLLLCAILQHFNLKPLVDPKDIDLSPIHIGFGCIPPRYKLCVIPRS
Source text: as §1, §2
Background: Microsomes from liver hold many membrane-bound enzymes, among them those of drug oxidation.

The subject of data set [5] is Male SD (Sprague-Dawley) rats. In words: APAP-induced hepatotoxicity in rats: galactose single point (GSP) residual liver function test. The format is in vivo, rat. As to conditions: excipient 1.67 mg/kg + APAP 1000 mg/kg, single oral dose. The protocol:
After the study was completed, all rats were subjected to GSP test. Rats were i.v. injected with 0.4 g/ml BW galactose solution 0.5 g/kg within 30 seconds and one blood sample was collected at 5, 10, 15, 30, 45 and 60 minutes post injection from the tail vein. Colorimetric galactose dehydrogenase is used to quantify the concentration of galactose and the test concentration ranges from 50 to 1,000 μg/ml. The within-day variation of each concentration is calculated using standard deviation and coefficient of variation (CV) and the maximum allowable coefficient of variation is 10% CV, whereas day-to-day variation is examined by comparing the slope and intercept of calibration curves. The GSP is the blood galactose concentration obtained 60 seconds after stopping the 30-second injection.

[6] abbreviates: APAP alone, single oral dose 1000 mg/kg, plasma, mean ± SD, 1000 mg/kg.
Setting [7] is: rat liver microsomes, test concentration 16.5 μM.
Where [8] appears, read: rat liver microsomes, test concentration 33 μM.
The mark [9] stands for this setting: rat liver microsomes, test concentration 66 μM.
[10] abbreviates: human liver microsomes, test concentration 16.5 μM.
Where [11] appears, read: human liver microsomes, test concentration 33 μM.
Setting [12] is: human liver microsomes, test concentration 66 μM.
The mark [13] stands for this setting: excipient 1.67 mg/kg + APAP 1000 mg/kg, single oral dose.
The mark [14] stands for this setting: rat, microsomes, 30 min, 16.5 μM, pH 7.4.
Setting [15] is: rat, microsomes, 30 min, 33 μM, pH 7.4.
[16] abbreviates: rat, microsomes, 30 min, 66 μM, pH 7.4.

Several values for one entry are separate records, joined by “and”; a condition that tells them apart may be missing. Equal values may be shown once. Entries after “also recorded” stand apart in the source; their conditions may differ.

Sequence of Cytochrome P450 2E1 (CYP2E1) (Rattus norvegicus, UniProt P05182) (P05182 whole entry): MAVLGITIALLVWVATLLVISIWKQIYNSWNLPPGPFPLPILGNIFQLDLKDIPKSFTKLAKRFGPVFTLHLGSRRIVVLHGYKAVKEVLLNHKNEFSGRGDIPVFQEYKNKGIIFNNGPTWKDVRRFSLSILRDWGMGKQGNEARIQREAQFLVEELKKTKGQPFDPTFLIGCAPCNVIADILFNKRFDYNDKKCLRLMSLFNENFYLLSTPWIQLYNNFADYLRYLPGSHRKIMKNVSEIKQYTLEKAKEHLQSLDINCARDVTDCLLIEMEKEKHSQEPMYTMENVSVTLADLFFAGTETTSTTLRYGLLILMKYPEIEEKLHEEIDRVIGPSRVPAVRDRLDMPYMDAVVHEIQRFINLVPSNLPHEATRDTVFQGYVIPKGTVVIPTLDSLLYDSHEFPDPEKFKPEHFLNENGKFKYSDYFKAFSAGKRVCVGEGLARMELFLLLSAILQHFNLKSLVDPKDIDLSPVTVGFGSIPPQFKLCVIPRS

As to `CC(=O)Nc1ccc(O)cc1` [APAP, N-acetyl-para-aminophenol, reference compound], in data set [1] (setting [6]), the ALT is recorded as 368±71 IU/L and the AST turned out to be 499±112 IU/L. Further, the “Total HAI-score” value in data set [2] (APAP alone, single oral dose 1000 mg/kg, mean ± SD) stood at 4.9 ± 1.8.
Turning to `CC1=CC(=O)NS(=O)(=O)O1` [Acesulfame potassium], the “CYP 2E1 inhibition ratio” value in data set [3] (setting [7]) was determined as 3.9 ± 2.7%; in data set [3] (setting [8]), 7.1 ± 2.3%; in data set [3] (setting [9]) it was 14.5 ± 1.9%.
For `OCc1ccccc1` [Benzyl alcohol], the “CYP 2E1 inhibition ratio” value in data set [3] (rat, microsomes, 30 min, 0.024 %, pH 7.4) is 8.2 ± 2.0%; in data set [3] (rat, microsomes, 30 min, 0.084 % (w/v), pH 7.4) it was 6.7 ± 1.0%; in data set [3] (rat, microsomes, 30 min, 0.167 % (w/v), pH 7.4) it was −10.3 ± 6.3%.
Regarding `O=C(O)CC(O)(CC(=O)O)C(=O)O` [Citric acid], the “CYP 2E1 inhibition ratio” value in data set [3] (setting [7]) is 7.5 ± 2.3%; in data set [3] (setting [8]), 12.4 ± 2.2%; in data set [3] (setting [9]) it was 27.6 ± 3.6%; in data set [4] (setting [10]) it was 9.9 ± 3.1%; in data set [4] (setting [11]), 15.5 ± 1.5%; in data set [4] (setting [12]), 20.5 ± 1.8%.
For the molecule `CCN(CC)C(=S)S` [DDTC, Diethyldithiocarbamic acid, reference compound], the “CYP 2E1 inhibition ratio” value was 8.6 ± 1.1% in data set [3] (rat liver microsomes, test concentration 10 μM); 50.4 ± 1.1% in data set [3] (rat liver microsomes, test concentration 50 μM); 89.2% and 89.2 ± 2.2% in data set [3] (rat liver microsomes, test concentration 100 μM); 7.3 ± 1.0% in data set [4] (human, microsomes, 30 min, 10 μM, pH 7.4); 49.8 ± 2.9% in data set [4] (human, microsomes, 30 min, 50 μM, pH 7.4); 89.6 ± 0.9% in data set [4] (human, microsomes, 30 min, 100 μM, pH 7.4).
In the case of `O.O.O=P([O-])([O-])O.[Ca+2]` [Dicalcium phosphate dihydrate], the “improvement of APAP liver damage (AST, ALT, GSP and Total HAI-score, in words)” value in data set [1] was “not as expected”. In addition, the ALT in data set [1] (setting [13]) is recorded as 196 ± 65 IU/L. The AST in data set [1] (setting [13]) worked out at 315 ± 42 IU/L. For the same molecule, the GSP in data set [5] (phosphate dihydrate) was determined as 444 ± 60 mg/L. Moreover, the “CYP 2E1 inhibition ratio” value in data set [3] (setting [7]) was determined as 55.0 ± 4.6%; in data set [3] (setting [8]), 62.0 ± 2.6%; in data set [3] (setting [9]) it was 76.7 ± 0.8%; in data set [4] (setting [10]) it was 31.2 ± 2.9%; in data set [4] (setting [11]), 56.8 ± 2.2%; in data set [4] (setting [12]), 60.1 ± 0.3%. Also, the “Total HAI-score” value in data set [2] (setting [13]) is reported as 3.1 ± 1.1. In addition, in data set [2] (single oral dose), the “liver tissue sections, hepatocyte morphology (in words)” value is recorded as “except for the dicalcium phosphate group”.
On to `CCCCCCCCCCCCCCCCCCCCCC(=O)OCC(O)CO` (stereo not drawn) [Glyceryl behenate], for which the “CYP 2E1 inhibition ratio” value was 3.1 ± 0.2% in data set [3] (setting [14]), 3.1 ± 2.5% in data set [3] (setting [15]) and 8.2 ± 2.0% in data set [3] (setting [16]).
For `O.OC[C@H]1O[C@@H](O[C@H]2[C@H](O)[C@@H](O)C(O)O[C@@H]2CO)[C@H](O)[C@@H](O)[C@H]1O` (stereo partly drawn) [Lactose monohydrate], the figures for the “CYP 2E1 inhibition ratio” value in data set [3] (setting [14]), in data set [3] (setting [15]) and in data set [3] (setting [16]) were 3.9 ± 2.3%, 7.8 ± 2.2% and 8.7 ± 3.8%, respectively.
In the case of `OC[C@@H](O)[C@@H](O)[C@H](O)[C@H](O)CO` [Mannitol], in data set [1], the “improvement of APAP liver damage (AST, ALT, GSP and Total HAI-score, in words)” value is reported as “significant decrease”. Also, the ALT in data set [1] (setting [13]) is 79 ± 34 IU/L. Moreover, the AST in data set [1] (setting [13]) came to 201 ± 30 IU/L. Also, the GSP in data set [5] came to 253 ± 29 mg/L. In addition, the “CYP 2E1 inhibition ratio” value in data set [3] (setting [14]) amounted to 40.9 ± 2.8%; in data set [3] (setting [15]) it was 51.0 ± 2.7%; in data set [3] (setting [16]), 60.6 ± 3.3%; in data set [4] (human, microsomes, 30 min, 16.5 μM, pH 7.4), 44.8 ± 1.8%; in data set [4] (human, microsomes, 30 min, 33 μM, pH 7.4), 51.2 ± 2.1%; in data set [4] (human, microsomes, 30 min, 66 μM, pH 7.4), 54.5 ± 4.2%. Further, the “Total HAI-score” value in data set [2] (setting [13]) was determined as 0.8 ± 0.3. In data set [2] (single oral dose), the “liver tissue sections, hepatocyte morphology (in words)” value is “more intact around the central vein and have a apparent nucleus with less vacuolization; also recorded: hepatocytes are relatively intact with visible nucleus and less vacuolization”.
